Reference: publication PMC5686155, “Crystal structures of the mitochondrial deacylase Sirtuin 4 reveal isoform-specific acyl recognition and regulation features” (Nature Communications, 2017)

Assays:
xSirt4 [1] = assay: MS-based assay of metabolite effects on xSirt4 activity; format: biochemical, Xenopus tropicalis; conditions: n = 2 (Supplementary Fig. 3b)
Description: For MS and UV analyzes of deacylation reactions, samples were prepared as described for the coupled continuous assay, stopped by mixing 1:1 with 0.5% TFA after 0 and 60 min, diluted to 20 µM peptide using 0.1% FA, and analyzed by HPLC-separation using a Shimadzu Prominence UFLC (Shimadzu, Duisburg, Germany) coupled to ESI-MS and UV detection. Samples were washed on a Piccolo Proto 200 C4 5 μm 2.5 × 0.5 mm trap column (Higgins Analytical, Mountain View, California) and subsequently subjected to a Jupiter C4 5 μm 300 Å 150 × 1 mm analytical column (Phenomenex, Torrance, California) for reversed phase separation, with 99.9% H2O, 0.1% TFA as buffer A and 99.9% ACN, 0.1% TFA as buffer B. Peptides were eluted over a 20 min gradient from 1 to 55% buffer B, followed by 1 min from 55 to 90% buffer B with 70 µL min^−1 flow-rate. […] We detected in a mass range from 300 to 2500 m/z. […]
Supplementary Figure 3. […] (n=2; error bars: s.d.) e, Inner surfaces of the nucleotide binding sites of Sirt1-6, colored by electrostatic potential calculated with APBS2.1 in PyMOL using PDB IDs 4KXQ (Sirt1), 5D7O (Sirt2), 4BN4 (Sirt3), our xSirt4 structure, PDB IDs 3RIY (Sirt5) and 3K35 (Sirt6). […] The surfaces are colored according to electrostatic potential (red/-15 to blue/+15 kBT/e). f, xSirt4 surface colored by electrostatic potential calculated using APBS2.1 in PyMOL (red/-15 to blue/+15 kBT/e). […]

xSirt4 [2] = assay: Thermal denaturation shift assay; format: binding, Xenopus tropicalis; conditions: 3 µM xSirt4, SYPRO orange, 20 to 73 °C; n = 2
Description: Thermal shift assays were performed in 96-well PCR plates using 3 µM xSirt4 (32–315) or 3 µM zSirt4 (29–310) and SYPRO orange (Thermo Fisher, Waltham, MA, USA) covered with 15 µL mineral oil. Heating and fluorescence measurements were performed in a FluoDia T70 with 1 K steps from 20 to 73 °C (excitation: 465 nm, emission: 580 nm). The data were analyzed in GraFit (Erithacus Software Ltd, Horley, UK) by nonlinear fitting using a two state model.

[3] = Non-enzymatic acylation of CPS1 peptide by acyl-CoA (titration); conditions: HMG-CoA titrations
Cyclophilin A (CypA) = biological target: T1, Cyclophilin A (CypA) (Homo sapiens, UniProt P62937); assay: HMG-CoA modification of recombinant Cyclophilin A, intact protein MS; conditions: CypA 0.4 mg/ml, 8 mM HMG-CoA, 100 mM Tris-HCl pH 8.3, 37 °C, 4 h
T1 construct: expression of a full-length CypA construct in pQE70 (Qiagen) in E. coli M15 cells; made in house; host or cells: E. coli M15
Description: The recombinant CypA was prepared through expression of a full-length CypA construct in pQE70 (Qiagen) in E. coli M15 cells and purification by ion exchange chromatography on Fractogel EMD DEAE-650(M), Fractogel TSK AF-Blue, and Fractogel SO3–650(M) (Merck Millipore)[29]. CypA protein (0.4 mg ml^−1) was modified using 8 mM HMG-CoA in 100 mM Tris-HCl buffer pH 8.3 at 37 °C for 4 h. Formation of HMG-ylated protein was confirmed by peptide-MS analyzes after tryptic digest, and by intact HMG-CypA mass analyzes through HPLC-coupled ESI-MS[56]. For intact mass determination, 25 µM HMG-CypA in 10 mM Tris/HCl pH 7.5, 50 mM NaCl was HPLC-separated with the setting described below for peptide MS, using a 30 min gradient from 1 to 55% buffer B (90% ACN, 9.9% H2O, 0.1% FA; buffer A: 5% ACN, 94.9% H2O, 0.1% FA) followed by 1 min of 55–90% buffer B with 70 µL min^−1 flow-rate. MS-analyzes were done with the settings described for peptide assays (below), except that the IntactProtein script was activated, which reduces CEM to 100. Acquired data were extracted with PeakView and deconvoluted in MassLynx in the range of 950–1500 m/z using the MaxEnt I algorithm to a resolution of 1 Da. Peak intensity values were recorded and overlaid using MassLynx.

hSirt4 [4] = biological target: T2, hSirt4 (Homo sapiens, UniProt Q9Y6E7); assay: HMG-FdL (Fluor-de-Lys-like) de-HMG-ylation assay; format: biochemical
T2 construct: hSirt4(25–314) in pQE30 coding for an N-terminal His6-tag; His6 (N); made in house; host or cells: Escherichia coli CodonPlus(DE3)
T2 sequence (Q9Y6E7 25-314): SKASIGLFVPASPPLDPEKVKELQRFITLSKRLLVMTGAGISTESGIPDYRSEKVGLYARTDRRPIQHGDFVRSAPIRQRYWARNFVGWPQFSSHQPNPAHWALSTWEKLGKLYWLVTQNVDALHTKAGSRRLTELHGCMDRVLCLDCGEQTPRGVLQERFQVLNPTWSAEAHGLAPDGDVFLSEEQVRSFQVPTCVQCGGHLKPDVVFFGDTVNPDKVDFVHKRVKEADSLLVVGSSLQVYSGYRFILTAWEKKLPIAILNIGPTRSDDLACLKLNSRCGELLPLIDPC
Description: As a convenient and complementary, fluorescence-based alternative to the coupled enzymatic assay with HMG-peptides, we established substrate and assay corresponding to the popular “Fluor-de-Lys” (FdL) deacylation assays. […] We then employed the FdL-like Sirt4 assay for studying the effects of NAM and NADH, which are not compatible with the coupled assay. […] After 20 min, developer solution (2 mM NAM and 10 mg mL^−1 trypsin) in assay buffer was added 1:1 and samples were incubated for 45 min at room temperature. Fluorescence was measures using a FluoDia T70 with excitation wavelength 365 nm and emission wavelength 465 nm.

hSirt4 [5] = biological target: T2, hSirt4; assay: Coupled continuous enzymatic assay monitoring NAM release from NAD+ (Sirt4 deacylation); format: biochemical; conditions: coupled enzymatic assay; for effect on Sirt4 de-HMG-ylation activity: HMG-CPS1 peptide; for Sirt4 deacylation signal with CypA protein as substrate: increasing amounts of protein substrate, n = 2 (Fig. 1f)
Description: The seven mammalian sirtuins vary in their sequence and acyl preferences[16],[19]. […] We therefore asked whether other acyl modifications would yield deacylation efficiencies expected for a physiologically dominant Sirt4 activity.
The coupled continuous assay was performed as reported. […] Reactions were monitored in microplates at room temperature for 1 h through absorption measurements at 340 nm in a LAMBDAScan plate reader (MWG Biotech, Ebersberg, Germany).

[6] = non-enzymatic; cited from earlier work
Source text: Acetyl transferases employ acetyl-CoA for modifying proteins. However, acetyl-CoA can also non-enzymatically modify proteins, and some other acyl-CoA, such as succinyl-CoA, do so even more efficiently, likely causing the emerging variety of protein acylations[14],[28],[29],[31]. We thus analyzed whether HMG-CoA efficiently acylates peptides and proteins.

[7] = 10 and 100 μM compound, n = 2 (Fig. 4a)

T1 sequence (P62937 whole entry): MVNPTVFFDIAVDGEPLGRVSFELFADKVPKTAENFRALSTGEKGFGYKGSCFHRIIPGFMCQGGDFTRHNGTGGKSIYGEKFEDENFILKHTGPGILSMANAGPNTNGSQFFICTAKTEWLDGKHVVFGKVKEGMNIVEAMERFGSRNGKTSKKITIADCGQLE

O=C(O)CCCC[C@@H]1CCSS1 (racemic) [lipoic acid]
effect on Sirt4 de-HMG-ylation activity (xSirt4 [1]): inhibits
effect on Sirt4 deacetylation activity (xSirt4 [1]): inhibits

Nc1ncnc2c1ncn2[C@@H]1O[C@H](COP(=O)(O)OP(=O)(O)OC[C@H]2OC(O)[C@H](O)[C@@H]2O)[C@@H](O)[C@H]1O (some centres unmarked) [ADPr, ADP-ribose]
Sirt4 stabilization in thermal denaturation shift experiments (xSirt4 [2]): significant Sirt4 stabilization

CC(C)(CO[P@@](=O)(O)O[P@@](=O)(O)OC[C@H]1O[C@@H](n2cnc3c(N)ncnc32)[C@H](O)[C@@H]1OP(=O)(O)O)[C@@H](O)C(=O)NCCC(=O)NCCSC(=O)C[C@@](C)(O)CC(=O)O [HMG-CoA]
bimolecular rate constant of CPS1 peptide acylation [3]: (4.0 ± 0.8)×10^–10 μM^−1 s^−1
number of HMG-modifications on CypA (Cyclophilin A (CypA)): 1–7

Cc1cc(=O)oc2cc(NC(=O)[C@H](CCCCNC(=O)CC(C)(O)CC(=O)O)NC(=O)OCc3ccccc3)ccc12 (stereo partly drawn) [HMG-FdL substrate, 5-(((S)−5-(((benzyloxy)carbonyl)amino)-6-((4-methyl-2-oxo-2H-chromen-7-yl)amino)-6-oxohexyl)amino)-3-hydroxy-3-methyl-5-oxopentanoic acid]
acceptance as Sirt4 substrate (hSirt4 [4]; FdL procedure, fluorescence): readily accepted by Sirt4

NC(=O)c1cccnc1 [NAM, nicotinamide]
Sirt4 stabilization in thermal denaturation shift experiments (xSirt4 [2]): no pronounced effects

O=C(Nc1ccccc1-c1cn2c(CN3CCNCC3)csc2n1)c1cnc2ccccc2n1 [SRT1720]
effect on Sirt4 de-HMG-ylation activity (hSirt4 [5]; 100 μM compound, high error, effect already in control reaction (assay incompatibility)): weak signal decrease
effect on Sirt4 activity in HMG-FdL assay (hSirt4 [4]; 1 µM hSirt4, 500 µM HMG-FdL substrate, 500 µM NAD+, n = 2 (Fig. 4c)): no effect on Sirt4 activity

CC(=O)SCCNC(=O)CCNC(=O)[C@H](O)C(C)(C)COP(=O)(O)OP(=O)(O)OC[C@H]1O[C@@H](n2cnc3c(N)ncnc32)[C@H](O)[C@@H]1OP(=O)(O)O [acetyl-CoA]
bimolecular rate constant k of CPS1 peptide acylation [6]: (1.5 ± 0.4)×10^–10 μM^−1 s^−1

Oc1ccc(/C=C/c2cc(O)cc(O)c2)cc1 [resveratrol]
effect on Sirt4 de-HMG-ylation activity (hSirt4 [5]; [7]): no significant effect

CC(NC(=O)c1ccccc1/N=C/c1c(O)ccc2ccccc12)c1ccccc1 (centres unmarked) [sirtinol]
effect on Sirt4 de-HMG-ylation activity (hSirt4 [5]; [7]): no significant effect

HMG-CypA: recombinant Cyclophilin A modified with HMG-CoA (1–7 HMG-modifications)
Sirt4 deacylation signal with CypA protein as substrate (hSirt4 [5]): strong, substrate concentration dependent signal

Unmodified CypA: recombinant Cyclophilin A, untreated
Sirt4 deacylation signal with CypA protein as substrate (hSirt4 [5]): did not yield a significant deacylation signal
